Key:
LAT1 [1] = target: T1, LAT1 (Homo sapiens, UniProt Q01650); assay: cryo-EM structure ([…] Å, occluded); cis inhibition and counterflow assays in oocytes
T1 construct: gene SLC7A5; LAT1–CD98hc in lipid nanodiscs with Fab170; with CD98hc (4F2hc; SLC3A2)

LAT1 [2] = target: T2, LAT1 (Homo sapiens, UniProt Q01650, F400V); assay: inhibition of L-[…]Leu uptake in Xenopus oocytes; assay type: cell-based
T2 construct: gene SLC7A5; F400V LAT1 expressed in Xenopus oocytes; with CD98hc (4F2hc; SLC3A2)
T2 sequence (Q01650 whole entry F400V): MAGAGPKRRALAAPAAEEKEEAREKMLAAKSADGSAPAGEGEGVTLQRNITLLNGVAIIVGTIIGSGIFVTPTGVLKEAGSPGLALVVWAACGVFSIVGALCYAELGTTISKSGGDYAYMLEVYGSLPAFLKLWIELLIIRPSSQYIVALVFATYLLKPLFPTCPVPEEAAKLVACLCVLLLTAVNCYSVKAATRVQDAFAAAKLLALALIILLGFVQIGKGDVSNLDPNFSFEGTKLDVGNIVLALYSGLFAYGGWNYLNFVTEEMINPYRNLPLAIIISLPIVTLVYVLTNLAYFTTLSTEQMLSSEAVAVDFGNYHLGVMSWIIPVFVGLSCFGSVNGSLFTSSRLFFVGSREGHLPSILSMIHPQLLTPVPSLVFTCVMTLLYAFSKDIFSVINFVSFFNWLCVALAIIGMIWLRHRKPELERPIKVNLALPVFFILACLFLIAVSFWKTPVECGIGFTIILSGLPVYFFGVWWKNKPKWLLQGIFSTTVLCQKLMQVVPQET
T2 sequence (P08195 103-630 partner): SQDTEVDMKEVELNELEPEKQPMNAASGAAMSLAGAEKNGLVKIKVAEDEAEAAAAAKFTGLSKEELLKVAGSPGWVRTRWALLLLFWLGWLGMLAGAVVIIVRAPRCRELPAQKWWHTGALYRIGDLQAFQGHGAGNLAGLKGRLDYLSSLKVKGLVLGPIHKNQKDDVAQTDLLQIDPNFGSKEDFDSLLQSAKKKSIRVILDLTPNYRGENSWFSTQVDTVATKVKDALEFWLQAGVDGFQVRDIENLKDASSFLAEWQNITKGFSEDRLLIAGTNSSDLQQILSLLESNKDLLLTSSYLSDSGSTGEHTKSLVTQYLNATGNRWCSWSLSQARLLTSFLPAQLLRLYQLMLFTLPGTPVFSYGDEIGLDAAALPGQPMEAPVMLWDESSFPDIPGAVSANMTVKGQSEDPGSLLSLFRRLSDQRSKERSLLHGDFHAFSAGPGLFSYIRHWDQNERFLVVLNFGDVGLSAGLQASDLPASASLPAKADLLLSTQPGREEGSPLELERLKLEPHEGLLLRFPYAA

LAT1 [3] = target: T3, LAT1 (Homo sapiens, UniProt Q01650, F252W); assay: inhibition of L-[…]Leu uptake in Xenopus oocytes; assay type: cell-based
T3 construct: gene SLC7A5; F252W LAT1 co-expressed with CD98hc in Xenopus oocytes; with CD98hc (4F2hc; SLC3A2)
T3 sequence (Q01650 whole entry F252W): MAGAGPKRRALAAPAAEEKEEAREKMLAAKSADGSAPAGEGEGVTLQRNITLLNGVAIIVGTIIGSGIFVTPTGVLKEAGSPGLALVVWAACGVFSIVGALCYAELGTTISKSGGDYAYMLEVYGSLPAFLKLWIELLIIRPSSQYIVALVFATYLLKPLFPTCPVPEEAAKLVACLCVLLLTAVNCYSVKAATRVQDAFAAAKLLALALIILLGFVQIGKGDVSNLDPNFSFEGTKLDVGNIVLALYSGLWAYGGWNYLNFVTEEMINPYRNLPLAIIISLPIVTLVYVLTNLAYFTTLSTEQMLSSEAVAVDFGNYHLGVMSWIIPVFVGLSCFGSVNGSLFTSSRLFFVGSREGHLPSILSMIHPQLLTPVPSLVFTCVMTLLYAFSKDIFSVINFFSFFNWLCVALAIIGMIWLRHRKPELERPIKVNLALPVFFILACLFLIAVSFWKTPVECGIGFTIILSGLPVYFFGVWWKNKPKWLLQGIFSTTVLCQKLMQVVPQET
T3 sequence (P08195 103-630 partner): as the sequence (P08195 103-630 partner) above

LAT1 [4] = target: T1, LAT1; assay: cryo-EM structure in nanodiscs ([…] Å); IC50 from L-[…]Leu uptake in Xenopus oocytes; assay type: cell-based
LAT1 [5] = target: T1, LAT1; assay: cryo-EM structure (outward-open, nanodisc)

T1 sequence (Q01650 whole entry): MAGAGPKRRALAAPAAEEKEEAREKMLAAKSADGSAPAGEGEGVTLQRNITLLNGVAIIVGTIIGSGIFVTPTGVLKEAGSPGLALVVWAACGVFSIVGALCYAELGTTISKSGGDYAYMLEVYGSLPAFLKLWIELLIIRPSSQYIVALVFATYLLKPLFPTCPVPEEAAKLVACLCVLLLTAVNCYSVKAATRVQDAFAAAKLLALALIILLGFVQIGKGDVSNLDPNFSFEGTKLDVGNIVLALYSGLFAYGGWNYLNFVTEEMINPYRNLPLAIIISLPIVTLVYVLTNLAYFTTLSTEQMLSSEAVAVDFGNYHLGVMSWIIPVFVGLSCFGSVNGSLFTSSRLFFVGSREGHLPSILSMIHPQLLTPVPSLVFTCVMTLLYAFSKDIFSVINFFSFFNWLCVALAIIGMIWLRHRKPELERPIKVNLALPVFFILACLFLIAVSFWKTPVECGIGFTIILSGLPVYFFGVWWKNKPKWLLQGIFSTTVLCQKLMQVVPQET
T1 sequence (P08195 103-630 partner): as the sequence (P08195 103-630 partner) above

With NC1(C(=O)O)CC2CCC1C2 (centres unmarked) [BCH, 2-aminobicyclo[2.2.1]heptane-2-carboxylic acid] the “cryo-EM structure (3.7 Å, occluded); cis inhibition and counterflow assays in oo” value (LAT1 [1]) was “BCH is bound in the canonical substrate-binding pocket, with its carboxy and amino moieties recognized”.

Nc1cc(COc2c(Cl)cc(C[C@H](N)C(=O)O)cc2Cl)c2oc(-c3ccccc3)nc2c1 [JPH203, (S)-2-amino-3-(4-((5-amino-2-phenylbenzo [d]oxazol-7-yl)methoxy)-3,5-dichlorophenyl) propanoic acid] was tested, and the “inhibition of L-[14C]Leu uptake in Xenopus oocytes” value (LAT1 [2]) was “the variant F400V retained its activity and was sensitive to JPH203”, the IC50 (LAT1 [3]) was 36 nM and the IC50 (LAT1 [4]) was 542 nM.

In the case of N[C@@H](Cc1ccc(N(CCCl)CCCl)cc1)C(=O)O [melphalan], the “cryo-EM structure (outward-open, nanodisc)” value (LAT1 [5]) is reported as “bis-(2-chloroethyl)amino side group is placed in the space surrounded by TM3, TM6a and TM10”.

— publication PMC11828871, “Structural basis of anticancer drug recognition and amino acid transport by LAT1” (Nature Communications, 2025)
